Data from patent US20260055441A1, “A PCR-ELISA ANALOGOUS ANTIBODY-FREE METHOD FOR DETECTING A TARGET NUCLEIC ACID IN A SAMPLE” (UNIVERSITÄT HEIDELBERG, priority 2022, published 2026).
Residues, ends and D or L forms follow the SMILES beside them. *: point of attachment. AMC = Cc1cc(=O)oc2cc(N*)ccc12; Cbz = O=C(OCc1ccccc1)*

Tests used:
[1] = biological target: T1, papain (Carica papaya, UniProt P00784); settings: literature (Whitesides group; Lukesh et al., 2012); cited from earlier work
T1 sequence (P00784 134-345): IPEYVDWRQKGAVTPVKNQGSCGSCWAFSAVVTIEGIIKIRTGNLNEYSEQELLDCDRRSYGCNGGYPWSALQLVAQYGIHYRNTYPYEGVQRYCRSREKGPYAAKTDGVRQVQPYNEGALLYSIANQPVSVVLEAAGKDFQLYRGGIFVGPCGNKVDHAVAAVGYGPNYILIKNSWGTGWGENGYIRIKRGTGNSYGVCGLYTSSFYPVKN

[2] = biological target: T2, latent papain (Carica papaya, UniProt P00784); assay: Latent papain reactivation with selenium/thiol activators in presence of TCEP, rates normalized to blank (FIG. 22); type: biochemical; settings: latent papain 1 nM
T2 construct: purchased Sigma Aldrich (Munich, Germany); host or cells: Papaya latex (natural source)
T2 sequence (P00784 134-345): T1 sequence (P00784 134-345)
Experimental: To this end, cysteine ethyl ester, DTT, DTBA (9) and SeDTBA (11) were chosen for a direct comparison. […] The resulting reaction rates were normalized against the background activity and the resulting normalized rates are presented in FIG. 22 for the concentration range of 50 pM-100 nM.
Different assays of reactivating latent papain in solution were conducted in the course of this work. Various buffer compositions, supplements, 96 well plates, substrates, activators, concentrations as well as different latent papain forms were compared. In order to get an overview of all experiments, a standard method is described in the following and variations of this method are subsequently defined. First, the well buffer was prepared (0.1 M phosphate buffer pH 7, 4 mM EDTA, 0.01% Brij35). A 1 mM TCEP solution was prepared with 3 mM NaOH in 0.1 M Tris-HCl buffer pH 8. Papain substrate (Z-Phe-Arg-AMC or Suc-Leu-Leu-Val-Tyr-AMC) was prepared as a 200 μM solution in water and transferred equally to a PCR strip. Three serial dilutions of the activating agent with well buffer were used in the different experiments and the corresponding pipetting schemes are shown in Table 9. Papain was diluted to 0.1 μM with well buffer and transferred equally to a PCR strip. […] After mixing, 30 μL of the prepared activator concentrations (see Table 9) were added and mixed. In the last step, 3.8 μL of the substrate solution was added and mixed, to yield a final well composition of 0.1 M phosphate buffer pH 7, 1 nM papain, 2 μM substrate, activator (see Table 9), 4 mM EDTA, 0.01% Brij35 and 1 μM TCEP. For experiments with only one activator concentration of 10 μM, the transferred well buffer for each well was 368.6 μL, followed by 3.8 μL of papain, substrate and activator (1 mM in well buffer) respectively.

[3] = biological target: T3, latent papain P13 (Carica papaya, UniProt P00784); assay: Screening of peptide-based papain activators, rates normalized to cysteine ethyl ester (FIG. 19, FIG. 20); type: biochemical
T3 construct: purchased Sigma Aldrich (Munich, Germany); host or cells: Papaya latex (natural source)
T3 sequence (P00784 134-345): T1 sequence (P00784 134-345)
Experimental: L-Cysteine ethyl ester was utilized in identical peptide concentrations as a standard in order to calculate normalized reaction rates for each synthesized peptide.
[…] The assays were conducted in well buffer with 1 nM latent papain P13. In order to give a clear overview, only the normalized rates for activator concentrations of 50 nM are depicted and compared.
Additionally, 1 μM TCEP was added to each well of the cysteine concentration series in order to examine the influence of TCEP on reaction rates of thiols.
Different assays of reactivating latent papain in solution were conducted in the course of this work. Various buffer compositions, supplements, 96 well plates, substrates, activators, concentrations as well as different latent papain forms were compared. In order to get an overview of all experiments, a standard method is described in the following and variations of this method are subsequently defined. First, the well buffer was prepared (0.1 M phosphate buffer pH 7, 4 mM EDTA, 0.01% Brij35). A 1 mM TCEP solution was prepared with 3 mM NaOH in 0.1 M Tris-HCl buffer pH 8. Papain substrate (Z-Phe-Arg-AMC or Suc-Leu-Leu-Val-Tyr-AMC) was prepared as a 200 μM solution in water and transferred equally to a PCR strip. Three serial dilutions of the activating agent with well buffer were used in the different experiments and the corresponding pipetting schemes are shown in Table 9. Papain was diluted to 0.1 μM with well buffer and transferred equally to a PCR strip. […] 342.4 μL of TCEP containing well buffer was transferred to each well, followed by 3.8 μL papain solution. After mixing, 30 μL of the prepared activator concentrations (see Table 9) were added and mixed. In the last step, 3.8 μL of the substrate solution was added and mixed, to yield a final well composition of 0.1 M phosphate buffer pH 7, 1 nM papain, 2 μM substrate, activator (see Table 9), 4 mM EDTA, 0.01% Brij35 and 1 μM TCEP. For experiments with only one activator concentration of 10 μM, the transferred well buffer for each well was 368.6 μL, followed by 3.8 μL of papain, substrate and activator (1 mM in well buffer) respectively.

[4] = Jacob et al., 2003; cited from earlier work
[5] = biological target: T1, papain; settings: Ménard et al. 1990; cited from earlier work
[6] = Huber et al. 1967; cited from earlier work
[7] = biological target: T4, H2N-CFR-CONH2
T4 chain: CFR

[8] = biological target: T5, H2N-CLR-CONH2
T5 chain: CLR

[9] = biological target: T6, dU-triazole-PEG3-ULR dimer (21) (not fully specified)
T6 chain: ULR

[10] = FIG. 20, concentration series 50 nM-10 μM
[11] = concentration series 50 nM-10 μM, papain P13 1 nM (FIG. 20)

CN(C(=O)CS)N(C)C(=O)CS [DMH, N,N-dimethyl-N,N′-bis(mercaptoacetyl)hydrazine]
papain activation rate compared to DTT [1]: 32 times

CN(C)C(=O)[C@H](S)CC[C@H](S)C(=O)N(C)C [DTA, meso-2,5-dimercapto-N,N,N,N-tetramethyladipamide]
papain activation rate compared to DTT [1]: 4.5 times

N[C@H](CS)CCS [DTBA (9), dithiobutylamine]
papain activation rate compared to DTT [1]: 14 times | rate relative to DTT ([2]; activator 50 nM, 1 μM TCEP): 13.6 times

CCOC(=O)[C@@H](N)CS.Cl [L-cysteine ethyl ester, L-Cysteine ethyl ester hydrochloride]
potency relative to (L-)cysteine [3, 10]: approximately 2.25 times | activator efficiency (normalized rate/rate blank), in words ([2]; 50 pM-100 nM activator, 1 μM TCEP (FIG. 22)): no substantial rate increase

N[C@@H](CS)C(=O)O [L-cysteine]
normalized rate compared to cysteine ethyl ester [3, 11]: around 40% | normalized rate compared to the tripeptide H2N-CLR-CONH2 [3, 11]: around 25% | redox potential E^0′ [4]: −0.233 V

Cc1cc(=O)oc2cc(NC(=O)[C@H](CCCNC(=N)N)NC(=O)[C@H](Cc3ccccc3)NC(=O)OCc3ccccc3)ccc12 [Z-Phe-Arg-AMC, Z-Phe-Arg 7-amido-4-methylcoumarin] (Cbz-Phe-Arg-{AMC})
Km [5]: 420 µM | kcat [5]: 52 s⁻¹

N[C@@H](C[SeH])C(=O)O [selenocysteine]
activator efficiency, in words [3, 10]: more potent activators compared to the tripeptide | rate relative to the tripeptide H2N-CLR-CONH2 ([3]; concentration series 50 nM-10 μM (FIG. 20), selenocysteine prepared with TCEP): 6.5 times | redox potential E^0′ [4]: −0.488 V | pKa [6]: 5.2

B1: latent papain, reversibly inactivated with S-methyl methanethiosulfonate (-S-S-CH3) (protein)
chain: T1 sequence (P00784 134-345)
normalized ratio rate/rate 10 uM cysteine of substrate hydrolysis after reactivation of latent papain (1 nM), activator 10 uM (fold of the rate with L-cysteine) [7]: 2 | normalized ratio rate/rate 10 uM cysteine of substrate hydrolysis after reactivation of latent papain (1 nM), activator 10 uM (fold of the rate with L-cysteine) [8]: 2 | normalized ratio rate/rate blank of substrate hydrolysis after reactivation of latent papain (1 nM) with activator 1-15 nM [9]: The normalized reaction rates for papain P20 now appeared the highest of all papain forms
